Results reported in patent US8076514B2, “Phenyl compounds and their use in the treatment of Type II diabetes” (Eli Lilly and Company, priority 2005, dated 2011).
pIC50: −log10 of the molar value. Structures can show the parent of a compound that is named as a salt.

Biological target: T1, human recombinant DPIV enzyme (Homo sapiens, UniProt P27487)
T1 construct: Secreted DPIV (lacking membrane anchor) is enriched from HEK293 cell culture supernatant; made in house; host or cells: HEK293
Assay: Human Recombinant DPIV Activity Assay (fluorometric end point, Gly-Pro-AMC substrate)
Type: biochemical
Settings: enriched human recombinant DPIV, Gly-Pro-AMC 0.02 mM, 12 points concentration response curve
Protocol: Human Recombinant DPIV Activity Assay The DPIV assay uses a fluorometric end point assay (excitation 355 nm; emission 460 nm), enriched human recombinant DPIV enzyme (21.3 μU/μl), and Gly-Pro-AMC (Bachem I-1225) as substrate (0.02 mM). Secreted DPIV (lacking membrane anchor) is enriched from HEK293 cell culture supernatant by ultrafiltration, ultra-centrifugation, and size-exclusion chromatography. IC50 values of the compounds are calculated based on a 12 points concentration response curve. Each concentration is measured in duplicate. The assay is validated by plate variability and conformity, inter-plate variability, signal window, and minimum significant ration of IC50. A MSR is calculated based on a test/retest analysis and a retrospective analysis. The MSR value is 1.8.

T1 sequence (P27487 29-766 limits assumed): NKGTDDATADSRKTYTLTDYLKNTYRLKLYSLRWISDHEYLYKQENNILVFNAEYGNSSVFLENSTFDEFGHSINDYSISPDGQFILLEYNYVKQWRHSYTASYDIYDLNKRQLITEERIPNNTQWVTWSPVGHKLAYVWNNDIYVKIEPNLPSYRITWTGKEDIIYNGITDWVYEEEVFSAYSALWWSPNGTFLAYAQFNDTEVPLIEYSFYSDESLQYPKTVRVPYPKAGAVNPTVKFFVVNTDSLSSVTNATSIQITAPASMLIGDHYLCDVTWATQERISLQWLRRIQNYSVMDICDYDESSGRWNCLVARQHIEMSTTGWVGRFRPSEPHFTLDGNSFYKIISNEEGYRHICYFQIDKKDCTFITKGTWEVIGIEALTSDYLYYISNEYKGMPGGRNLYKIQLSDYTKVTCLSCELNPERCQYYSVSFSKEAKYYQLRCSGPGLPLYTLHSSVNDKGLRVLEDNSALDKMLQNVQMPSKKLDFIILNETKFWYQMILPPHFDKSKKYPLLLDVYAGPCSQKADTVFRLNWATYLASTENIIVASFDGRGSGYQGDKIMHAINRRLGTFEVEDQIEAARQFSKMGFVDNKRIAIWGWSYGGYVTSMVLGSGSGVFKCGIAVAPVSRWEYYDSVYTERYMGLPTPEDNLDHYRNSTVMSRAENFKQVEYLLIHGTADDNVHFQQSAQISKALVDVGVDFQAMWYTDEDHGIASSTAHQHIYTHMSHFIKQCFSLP

Row | pIC50 | SMILES
1 | 7.01 | COc1ccc(C(=O)NC(C)(C)C)c(C[C@H](O)[C@H](N)Cc2ccccc2F)c1 [Example 6, 2-[(2S,3R)-3-Amino-4-(2-fluoro-phenyl)-2-hydroxy-butyl]-N-tert-butyl-4-methoxy-benzamide Hydrochloride]
2 | 6.87 | CC(C)(C)NC(=O)c1cc(Cl)ccc1C[C@H](O)[C@H](N)Cc1ccccc1F [Example 7, 2-[(2S,3R)-3-Amino-4-(2-fluoro-phenyl)-2-hydroxy-butyl]-N-tert-butyl-5-chloro-benzamide Hydrochloride]
